Experimental data published in ChEMBL document CHEMBL2429821, “A Casein kinase 1/Checkpoint kinase 1 pyrazolo-pyridine protein kinase inhibitor as novel activator of the p53 pathway” (Bioorg Med Chem Lett, 2013).

What was measured:
[1] = target: Ephrin type-A receptor 2 (Homo sapiens) (UniProt P29317); assay: Inhibition of human EPHA2 assessed as residual activity at 10 uM relative to control
Rattus norvegicus = organism: Rattus norvegicus; assay: Inhibition of rat AMPK assessed as residual activity at 1 uM relative to control
[2] = target: SRSF protein kinase 1 (Homo sapiens) (UniProt Q96SB4); assay: Inhibition of human SRPK1 assessed as residual activity at 1 uM relative to control
Sequence of SRSF protein kinase 1 (Homo sapiens) (Q96SB4 whole entry): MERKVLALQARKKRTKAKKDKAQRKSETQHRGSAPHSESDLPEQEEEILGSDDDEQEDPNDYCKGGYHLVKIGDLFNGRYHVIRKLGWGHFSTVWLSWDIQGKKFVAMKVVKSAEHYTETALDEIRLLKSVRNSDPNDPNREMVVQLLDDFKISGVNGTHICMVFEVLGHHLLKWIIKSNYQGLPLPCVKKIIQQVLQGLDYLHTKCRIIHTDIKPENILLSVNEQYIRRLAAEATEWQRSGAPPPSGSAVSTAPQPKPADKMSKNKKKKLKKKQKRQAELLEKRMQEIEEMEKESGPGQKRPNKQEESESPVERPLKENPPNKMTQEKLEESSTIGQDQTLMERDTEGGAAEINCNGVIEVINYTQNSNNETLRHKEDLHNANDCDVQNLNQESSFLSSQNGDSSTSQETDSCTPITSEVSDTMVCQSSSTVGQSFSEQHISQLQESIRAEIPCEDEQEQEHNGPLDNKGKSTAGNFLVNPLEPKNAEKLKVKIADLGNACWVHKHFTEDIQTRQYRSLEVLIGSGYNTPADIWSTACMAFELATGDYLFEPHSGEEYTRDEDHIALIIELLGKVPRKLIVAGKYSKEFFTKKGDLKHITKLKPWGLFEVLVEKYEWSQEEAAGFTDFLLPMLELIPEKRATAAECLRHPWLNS

[3] = target: Ribosomal protein S6 kinase beta-1 (Homo sapiens) (UniProt P23443); assay: Inhibition of human S6K1 assessed as residual activity at 10 uM relative to control
[4] = target: RAC-beta serine/threonine-protein kinase (Homo sapiens) (UniProt P31751); assay: Inhibition of human PKBbeta assessed as residual activity at 1 uM relative to control
Sequence of RAC-beta serine/threonine-protein kinase (Homo sapiens) (P31751 whole entry): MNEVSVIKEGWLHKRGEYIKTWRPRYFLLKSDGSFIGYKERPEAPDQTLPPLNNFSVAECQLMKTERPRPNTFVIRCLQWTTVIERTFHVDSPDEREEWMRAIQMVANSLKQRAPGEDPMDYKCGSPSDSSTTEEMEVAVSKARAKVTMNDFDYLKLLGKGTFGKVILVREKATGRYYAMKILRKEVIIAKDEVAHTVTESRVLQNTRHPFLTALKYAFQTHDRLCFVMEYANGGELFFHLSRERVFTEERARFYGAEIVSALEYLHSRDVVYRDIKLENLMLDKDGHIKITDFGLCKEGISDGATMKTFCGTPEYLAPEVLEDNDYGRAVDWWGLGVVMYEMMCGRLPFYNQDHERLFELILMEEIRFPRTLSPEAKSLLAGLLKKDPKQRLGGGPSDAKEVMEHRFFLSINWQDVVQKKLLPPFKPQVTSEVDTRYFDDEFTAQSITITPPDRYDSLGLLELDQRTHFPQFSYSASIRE

[5] = target: Serine/threonine-protein kinase pim-1 (Homo sapiens) (UniProt P11309); assay: Inhibition of human PIM1 assessed as residual activity at 10 uM relative to control
[6] = target: T1, Serine/threonine-protein kinase Nek2 (Homo sapiens) (UniProt P51955); assay: Inhibition of human NEK2alpha assessed as residual activity at 1 uM relative to control
T1 sequence (whole entry): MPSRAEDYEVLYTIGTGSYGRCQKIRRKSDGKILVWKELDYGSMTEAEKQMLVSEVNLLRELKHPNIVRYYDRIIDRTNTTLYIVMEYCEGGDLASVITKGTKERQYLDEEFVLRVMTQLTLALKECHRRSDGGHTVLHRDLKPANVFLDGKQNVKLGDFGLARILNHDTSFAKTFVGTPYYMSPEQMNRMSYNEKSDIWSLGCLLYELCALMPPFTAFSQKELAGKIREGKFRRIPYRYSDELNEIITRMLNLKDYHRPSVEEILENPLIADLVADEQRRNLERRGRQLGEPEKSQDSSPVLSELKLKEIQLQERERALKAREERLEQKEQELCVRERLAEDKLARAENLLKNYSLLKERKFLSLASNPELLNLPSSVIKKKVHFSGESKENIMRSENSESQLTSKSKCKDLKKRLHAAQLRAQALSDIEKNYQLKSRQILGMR

[7] = target: Fibroblast growth factor receptor 1 (Homo sapiens, UniProt P11362); assay: Inhibition of human FGFR1 assessed as residual activity at 10 uM relative to control
[8] = target: RAC-alpha serine/threonine-protein kinase (Homo sapiens) (UniProt P31749); assay: Inhibition of human PKBalpha assessed as residual activity at 1 uM relative to control
Sequence of RAC-alpha serine/threonine-protein kinase (Homo sapiens) (P31749 whole entry): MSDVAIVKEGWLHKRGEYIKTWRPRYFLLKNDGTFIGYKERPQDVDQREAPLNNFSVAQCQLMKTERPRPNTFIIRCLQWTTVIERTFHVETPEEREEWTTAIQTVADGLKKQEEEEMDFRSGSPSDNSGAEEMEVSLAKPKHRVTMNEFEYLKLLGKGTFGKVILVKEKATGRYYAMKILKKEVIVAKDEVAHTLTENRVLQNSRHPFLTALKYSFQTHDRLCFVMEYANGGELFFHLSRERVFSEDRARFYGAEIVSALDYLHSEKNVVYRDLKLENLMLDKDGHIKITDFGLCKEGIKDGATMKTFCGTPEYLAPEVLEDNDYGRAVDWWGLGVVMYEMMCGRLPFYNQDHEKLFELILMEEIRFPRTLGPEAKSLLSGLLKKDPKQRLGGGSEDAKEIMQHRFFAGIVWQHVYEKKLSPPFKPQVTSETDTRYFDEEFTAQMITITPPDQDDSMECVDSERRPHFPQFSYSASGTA

[9] = target: Proto-oncogene tyrosine-protein kinase Src (Homo sapiens) (UniProt P12931); assay: Inhibition of human SRC assessed as residual activity at 1 uM relative to control
Sequence of Proto-oncogene tyrosine-protein kinase Src (Homo sapiens) (P12931 2-536 limits assumed): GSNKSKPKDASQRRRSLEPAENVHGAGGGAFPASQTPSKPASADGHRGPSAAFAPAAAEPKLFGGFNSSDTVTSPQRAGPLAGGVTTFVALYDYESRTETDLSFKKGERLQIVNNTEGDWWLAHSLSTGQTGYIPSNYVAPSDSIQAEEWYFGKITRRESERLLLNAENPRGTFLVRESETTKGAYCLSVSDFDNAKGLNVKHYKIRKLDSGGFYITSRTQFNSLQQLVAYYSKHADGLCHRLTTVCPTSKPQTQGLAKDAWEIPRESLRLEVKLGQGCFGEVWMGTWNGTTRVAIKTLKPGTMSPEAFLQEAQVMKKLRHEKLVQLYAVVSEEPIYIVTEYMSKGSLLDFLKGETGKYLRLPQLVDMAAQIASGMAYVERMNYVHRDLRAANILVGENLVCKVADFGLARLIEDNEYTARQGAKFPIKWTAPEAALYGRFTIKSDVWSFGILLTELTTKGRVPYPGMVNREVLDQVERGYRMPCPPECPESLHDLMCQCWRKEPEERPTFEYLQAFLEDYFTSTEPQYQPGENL

[10] = target: Ribosomal protein S6 kinase alpha-3 (Homo sapiens) (UniProt P51812); assay: Inhibition of human RSK2 assessed as residual activity at 1 uM relative to control
Sequence of Ribosomal protein S6 kinase alpha-3 (Homo sapiens) (P51812 whole entry): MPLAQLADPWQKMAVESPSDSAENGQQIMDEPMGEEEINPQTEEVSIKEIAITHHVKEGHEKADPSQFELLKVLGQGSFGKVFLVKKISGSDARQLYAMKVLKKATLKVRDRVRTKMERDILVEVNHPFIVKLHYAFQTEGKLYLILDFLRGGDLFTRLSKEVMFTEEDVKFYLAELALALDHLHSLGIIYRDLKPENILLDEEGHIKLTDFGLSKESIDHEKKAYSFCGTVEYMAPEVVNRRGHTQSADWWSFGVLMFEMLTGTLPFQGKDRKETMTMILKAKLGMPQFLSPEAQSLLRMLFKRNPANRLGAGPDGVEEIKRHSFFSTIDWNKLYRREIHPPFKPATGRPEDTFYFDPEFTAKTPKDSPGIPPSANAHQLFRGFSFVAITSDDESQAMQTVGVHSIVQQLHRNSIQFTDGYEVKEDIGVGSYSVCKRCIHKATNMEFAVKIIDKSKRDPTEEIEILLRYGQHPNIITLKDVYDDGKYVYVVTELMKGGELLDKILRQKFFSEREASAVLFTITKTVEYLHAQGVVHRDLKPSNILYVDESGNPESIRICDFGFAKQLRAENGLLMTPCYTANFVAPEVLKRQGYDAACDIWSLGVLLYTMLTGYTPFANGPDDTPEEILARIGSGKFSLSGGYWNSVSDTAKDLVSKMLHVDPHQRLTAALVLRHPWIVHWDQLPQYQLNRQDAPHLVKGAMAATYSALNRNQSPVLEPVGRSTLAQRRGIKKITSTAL

[11] = target: Serine/threonine-protein kinase PLK1 (Homo sapiens) (UniProt P53350); assay: Inhibition of human PLK1 assessed as residual activity at 10 uM relative to control
Sequence of Serine/threonine-protein kinase PLK1 (Homo sapiens) (P53350 whole entry): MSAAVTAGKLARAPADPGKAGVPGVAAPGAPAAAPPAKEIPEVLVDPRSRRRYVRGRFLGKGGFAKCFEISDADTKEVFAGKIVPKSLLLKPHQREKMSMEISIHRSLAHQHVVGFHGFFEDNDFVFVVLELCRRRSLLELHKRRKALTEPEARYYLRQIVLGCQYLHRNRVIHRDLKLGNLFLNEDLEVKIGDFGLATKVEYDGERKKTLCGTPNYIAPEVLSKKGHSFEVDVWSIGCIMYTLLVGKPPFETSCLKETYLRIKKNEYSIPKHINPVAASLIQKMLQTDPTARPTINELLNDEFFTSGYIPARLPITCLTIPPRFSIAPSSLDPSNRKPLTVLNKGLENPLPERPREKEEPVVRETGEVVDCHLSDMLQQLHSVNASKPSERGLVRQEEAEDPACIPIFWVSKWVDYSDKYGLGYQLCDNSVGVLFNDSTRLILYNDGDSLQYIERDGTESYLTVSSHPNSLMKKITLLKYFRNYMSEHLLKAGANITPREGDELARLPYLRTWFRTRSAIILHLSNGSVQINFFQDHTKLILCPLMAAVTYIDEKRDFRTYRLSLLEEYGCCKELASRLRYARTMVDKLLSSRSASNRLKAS

[12] = target: Tyrosine-protein kinase SYK (Homo sapiens) (UniProt P43405); assay: Inhibition of human SYK assessed as residual activity at 1 uM relative to control
[13] = target: Ephrin type-A receptor 2 (Homo sapiens) (UniProt P29317); assay: Inhibition of human EPHA2 assessed as residual activity at 1 uM relative to control
[14] = target: Serine/threonine-protein kinase PLK1 (Homo sapiens) (UniProt P53350); assay: Inhibition of human PLK1 assessed as residual activity at 1 uM relative to control
[15] = target: Protein kinase C alpha type (Homo sapiens) (UniProt P17252); assay: Inhibition of human PKCalpha assessed as residual activity at 1 uM relative to control
[16] = target: T2, Serine/threonine-protein kinase Chk1 (Homo sapiens) (UniProt O14757); assay: Inhibition of human CHK1 assessed as residual activity at 10 uM relative to control
T2 sequence (whole entry): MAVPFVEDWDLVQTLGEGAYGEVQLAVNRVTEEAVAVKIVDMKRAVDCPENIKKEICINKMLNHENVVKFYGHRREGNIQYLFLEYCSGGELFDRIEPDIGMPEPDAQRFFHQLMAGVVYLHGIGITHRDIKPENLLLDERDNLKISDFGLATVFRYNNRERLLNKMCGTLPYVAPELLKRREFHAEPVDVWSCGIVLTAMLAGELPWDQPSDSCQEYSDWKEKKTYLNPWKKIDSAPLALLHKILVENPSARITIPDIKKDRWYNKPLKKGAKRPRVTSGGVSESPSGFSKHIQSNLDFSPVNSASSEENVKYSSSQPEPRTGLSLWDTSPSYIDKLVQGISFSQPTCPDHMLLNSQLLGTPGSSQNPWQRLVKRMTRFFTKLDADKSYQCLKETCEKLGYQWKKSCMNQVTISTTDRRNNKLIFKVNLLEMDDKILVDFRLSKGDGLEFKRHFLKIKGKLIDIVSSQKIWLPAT

[17] = target: Casein kinase I isoform delta (Rattus norvegicus) (UniProt Q06486); assay: Inhibition of rat CK1delta assessed as residual activity at 10 uM relative to control
Sequence of Casein kinase I isoform delta (Rattus norvegicus) (Q06486 whole entry, looked up, canonical isoform): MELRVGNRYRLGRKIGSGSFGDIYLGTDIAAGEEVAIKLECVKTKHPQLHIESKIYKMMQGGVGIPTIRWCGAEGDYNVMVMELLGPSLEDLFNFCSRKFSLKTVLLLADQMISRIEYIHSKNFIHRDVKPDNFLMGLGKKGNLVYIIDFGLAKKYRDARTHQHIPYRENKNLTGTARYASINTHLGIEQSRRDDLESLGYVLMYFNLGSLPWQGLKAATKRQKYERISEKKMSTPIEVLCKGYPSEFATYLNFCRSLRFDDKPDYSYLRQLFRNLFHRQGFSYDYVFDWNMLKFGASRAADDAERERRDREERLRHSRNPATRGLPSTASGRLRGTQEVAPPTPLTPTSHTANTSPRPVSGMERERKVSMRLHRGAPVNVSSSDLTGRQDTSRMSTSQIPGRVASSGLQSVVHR

Bos taurus = organism: Bos taurus; assay: Inhibition of cow PKA assessed as residual activity at 1 uM relative to control
[18] = target: T1, Serine/threonine-protein kinase Nek2 (Homo sapiens); assay: Inhibition of human NEK2alpha assessed as residual activity at 10 uM relative to control
[19] = target: Cyclin-dependent kinase 2 (Homo sapiens) (UniProt P24941); assay: Inhibition of human CDK2 assessed as residual activity at 10 uM relative to control
[20] = target: Proto-oncogene tyrosine-protein kinase Src (Homo sapiens) (UniProt P12931); assay: Inhibition of human SRC assessed as residual activity at 10 uM relative to control
[21] = target: MAP kinase-interacting serine/threonine-protein kinase 1 (Homo sapiens) (UniProt Q9BUB5); assay: Inhibition of human MNK1 assessed as residual activity at 10 uM relative to control
[22] = target: Tyrosine-protein kinase Yes (Homo sapiens) (UniProt P07947); assay: Inhibition of human YES1 assessed as residual activity at 1 uM relative to control
Sequence of Tyrosine-protein kinase Yes (Homo sapiens) (P07947 2-543 limits assumed): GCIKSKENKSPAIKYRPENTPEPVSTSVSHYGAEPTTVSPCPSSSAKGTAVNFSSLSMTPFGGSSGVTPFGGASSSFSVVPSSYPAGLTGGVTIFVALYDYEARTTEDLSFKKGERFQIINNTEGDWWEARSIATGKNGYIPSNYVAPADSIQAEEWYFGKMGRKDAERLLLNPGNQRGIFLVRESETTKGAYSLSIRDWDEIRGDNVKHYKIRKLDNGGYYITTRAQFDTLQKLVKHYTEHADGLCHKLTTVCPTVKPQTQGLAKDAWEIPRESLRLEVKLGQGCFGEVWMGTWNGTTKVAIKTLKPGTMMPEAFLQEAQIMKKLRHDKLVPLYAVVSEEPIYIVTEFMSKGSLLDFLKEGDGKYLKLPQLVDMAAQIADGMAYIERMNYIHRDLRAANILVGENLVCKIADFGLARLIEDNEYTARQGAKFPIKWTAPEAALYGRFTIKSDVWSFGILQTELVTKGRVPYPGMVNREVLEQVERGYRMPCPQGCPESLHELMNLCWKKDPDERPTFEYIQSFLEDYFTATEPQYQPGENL

[23] = target: Mitogen-activated protein kinase 8 (Homo sapiens) (UniProt P45983); assay: Inhibition of human JNK1 assessed as residual activity at 1 uM relative to control
Sequence of Mitogen-activated protein kinase 8 (Homo sapiens) (P45983 whole entry): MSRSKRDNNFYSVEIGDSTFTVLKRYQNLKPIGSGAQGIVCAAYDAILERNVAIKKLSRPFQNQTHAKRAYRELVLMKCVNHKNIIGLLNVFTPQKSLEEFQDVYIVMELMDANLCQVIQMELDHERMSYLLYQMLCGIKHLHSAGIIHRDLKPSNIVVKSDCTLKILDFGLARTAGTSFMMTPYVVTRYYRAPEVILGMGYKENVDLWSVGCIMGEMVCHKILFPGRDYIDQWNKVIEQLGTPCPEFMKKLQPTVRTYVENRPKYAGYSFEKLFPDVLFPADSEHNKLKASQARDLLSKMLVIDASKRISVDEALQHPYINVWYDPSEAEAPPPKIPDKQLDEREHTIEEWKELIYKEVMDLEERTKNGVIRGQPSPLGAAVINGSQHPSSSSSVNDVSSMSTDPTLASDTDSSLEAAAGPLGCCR

[24] = target: MAP kinase-interacting serine/threonine-protein kinase 1 (Homo sapiens) (UniProt Q9BUB5); assay: Inhibition of human MNK1 assessed as residual activity at 1 uM relative to control
[25] = target: Insulin receptor-related protein (Homo sapiens) (UniProt P14616); assay: Inhibition of human IRR assessed as residual activity at 1 uM relative to control

| Activity [1] | Activity (Rattus norvegicus) | Activity [2] | Activity [3] | Activity [4] | Activity [5] | Activity [6] | Activity [7] | Activity [8] | Activity [9] | Activity [10] | Activity [11] | Activity [12] | Activity [13] | Activity [14] | Activity [15] | Activity [16] | Activity [17] | Activity (Bos taurus) | Activity [18] | SMILES | other results |
| --- | --- | --- | --- | --- | --- | --- | --- | --- | --- | --- | --- | --- | --- | --- | --- | --- | --- | --- | --- | --- | --- |
| 91.9% | 82.8% | 87.7% | 99.9% | 89.7% | 88.9% | 85.8% | 99.6% | 112% | 98.3% | 78.7% | 81.6% | 69% | 91.2% | 76% | 94% | 105% | 7.2% | 81.7% | 82.7% | CC(=O)Nc1nccc(-c2c(-c3ccccc3)noc2C)n1 | Activity [19]: 104%; Activity [20]: 91.9%; Activity [21]: 102%; Activity [22]: 119%; Activity [23]: 67%; Activity [24]: 101%; Activity [25]: 83.2% |
| 88% | 93% | 93% | 88% | 94% | 53% | 97% | 68% | 94% | 75% | 92% | 80% | 99% | 86% | 97% | 79% | 82% | 84% | 101% | 90% | CCCC(=O)Nc1n[nH]c2ncc(-c3cccnc3)cc12 | Activity [19]: 5%; Activity [20]: 72%; Activity [21]: 91%; Activity [22]: 83%; Activity [23]: 97%; Activity [24]: 79%; Activity [25]: 61% |
| 69.5% | 74.3% | 95.9% | 69.8% | 94.6% | 28.2% | 53.5% | 54.6% | 89.5% | 65% | 93.8% | 95.5% | 115% | 101% | 106% | 124% | 4.34% | 10% | 95% | 10.5% | CC(=O)Nc1cccc(-c2cnc3[nH]nc(C)c3c2)c1 | Activity [19]: 40.3%; Activity [20]: 23.8%; Activity [21]: 19.3%; Activity [22]: 100%; Activity [23]: 93.3%; Activity [24]: 70%; Activity [25]: 73.9% |
